Experimental data: ChEMBL document CHEMBL4507262, “Data for DCP probe A-1596586” (2021)
Active and inactive are the calls of the source. No cut-off for these calls is given here.

Columns and labels:
[1] = biological target: Serine/threonine-protein kinase PLK2 (Homo sapiens) (UniProt Q9NYY3); conditions: Compound concentration 1000.0 nM
[2] = biological target: Cyclin-dependent kinase-like 3 (Homo sapiens) (UniProt Q8IVW4); conditions: Compound concentration 1000.0 nM
[3] = biological target: Mitogen-activated protein kinase kinase kinase 1 (Homo sapiens) (UniProt Q13233); conditions: Compound concentration 1000.0 nM
[4] = biological target: Serine/threonine-protein kinase TAO2 (Homo sapiens) (UniProt Q9UL54); conditions: Compound concentration 1000.0 nM
[5] = biological target: Serine/threonine-protein kinase ULK2 (Homo sapiens) (UniProt Q8IYT8); conditions: Compound concentration 1000.0 nM
[6] = biological target: Mitogen-activated protein kinase 13 (Homo sapiens) (UniProt O15264); conditions: Compound concentration 1000.0 nM
[7] = biological target: Dual specificity mitogen-activated protein kinase kinase 7 (Homo sapiens) (UniProt O14733); conditions: Compound concentration 1000.0 nM
[8] = test system: Receptor-type tyrosine-protein kinase FLT3 (Homo sapiens), P36888 [UNDEFINED MUTATION]; conditions: Compound concentration 1000.0 nM
[9] = biological target: Calcium-dependent protein kinase 1 (Plasmodium falciparum) (UniProt P62344); conditions: Compound concentration 1000.0 nM
[10] = test system: Receptor-type tyrosine-protein kinase FLT3 (Homo sapiens), P36888 [UNDEFINED MUTATION]; conditions: Compound concentration 1000.0 nM; remark: listed apart in the source
[11] = biological target: Cyclin-dependent kinase 4 (Homo sapiens) (UniProt P11802); conditions: Compound concentration 1000.0 nM
[12] = biological target: D(1B) dopamine receptor (Homo sapiens) (UniProt P21918); conditions: Compound concentration 10.0 uM
[13] = biological target: Cyclin-dependent kinase 13 (Homo sapiens) (UniProt Q14004); conditions: Compound concentration 1000.0 nM
[14] = biological target: Cystic fibrosis transmembrane conductance regulator (Homo sapiens, UniProt P13569); test: Plasma membrane-expressed enzyme acceptor protein (EA-MEM) assay
[15] = biological target: Phosphatidylinositol 5-phosphate 4-kinase type-2 beta (Homo sapiens) (UniProt P78356); conditions: Compound concentration 1000.0 nM
[16] = biological target: Muscarinic acetylcholine receptor M3 (Homo sapiens) (UniProt P20309); test: M3 (h) Eurofins-Cerep binding assay; design: ligand concentration 0.2 nM; conditions: filed as antagonist, Compound concentration 10.0 uM
[17] = biological target: Mitogen-activated protein kinase 8 (Homo sapiens) (UniProt P45983); conditions: Compound concentration 1000.0 nM
[18] = biological target: Ribosomal protein S6 kinase alpha-2 (Homo sapiens) (UniProt Q15349); conditions: Compound concentration 1000.0 nM
[19] = biological target: Cholecystokinin receptor type A (Homo sapiens) (UniProt P32238); test: CCK1 (CCKA) (h) Eurofins-Cerep binding assay; conditions: filed as agonist, Compound concentration 10.0 uM
[20] = biological target: Serine/threonine-protein kinase Chk1 (Homo sapiens) (UniProt O14757); conditions: Compound concentration 1000.0 nM
[21] = test system: Epidermal growth factor receptor (Homo sapiens), P00533 [T790M]; conditions: Compound concentration 1000.0 nM
[22] = biological target: Serine/threonine-protein kinase TAO3 (Homo sapiens) (UniProt Q9H2K8); conditions: Compound concentration 1000.0 nM
[23] = biological target: Ribosomal protein S6 kinase alpha-3 (Homo sapiens) (UniProt P51812); conditions: Compound concentration 1000.0 nM
[24] = biological target: Myotonin-protein kinase (Homo sapiens) (UniProt Q09013); conditions: Compound concentration 1000.0 nM
[25] = test system: Phosphatidylinositol 4,5-bisphosphate 3-kinase catalytic subunit alpha isoform (Homo sapiens), P42336 [H1047L]; conditions: Compound concentration 1000.0 nM
[26] = biological target: Mast/stem cell growth factor receptor Kit (Homo sapiens) (UniProt P10721); conditions: Compound concentration 1000.0 nM
[27] = biological target: T1, 5-hydroxytryptamine receptor 3A (Homo sapiens) (UniProt P46098); test: 5-HT3 (h) Eurofins-Cerep binding assay; design: ligand concentration 0.5 nM; conditions: filed as antagonist, Compound concentration 10.0 uM
T1 sequence (whole entry): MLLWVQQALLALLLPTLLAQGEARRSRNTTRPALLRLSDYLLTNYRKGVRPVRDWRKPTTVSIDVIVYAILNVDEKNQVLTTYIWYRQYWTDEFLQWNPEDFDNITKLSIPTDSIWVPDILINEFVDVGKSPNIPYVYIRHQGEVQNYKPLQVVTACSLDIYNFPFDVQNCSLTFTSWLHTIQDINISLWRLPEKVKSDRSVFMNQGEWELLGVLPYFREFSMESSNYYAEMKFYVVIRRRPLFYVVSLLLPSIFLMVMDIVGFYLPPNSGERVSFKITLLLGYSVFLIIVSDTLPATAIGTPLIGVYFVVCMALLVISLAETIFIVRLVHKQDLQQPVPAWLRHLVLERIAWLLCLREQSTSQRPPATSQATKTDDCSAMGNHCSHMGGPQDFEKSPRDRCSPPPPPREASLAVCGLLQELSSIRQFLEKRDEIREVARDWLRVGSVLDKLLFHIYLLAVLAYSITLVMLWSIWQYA

[28] = biological target: D(2) dopamine receptor (Homo sapiens) (UniProt P14416); conditions: Compound concentration 10.0 uM
[29] = biological target: Tyrosine-protein kinase receptor UFO (Homo sapiens) (UniProt P30530); conditions: Compound concentration 1000.0 nM
[30] = biological target: Serine/threonine-protein kinase N1 (Homo sapiens) (UniProt Q16512); conditions: Compound concentration 1000.0 nM
[31] = test system: Receptor-type tyrosine-protein kinase FLT3 (Homo sapiens), P36888 [K663Q]; conditions: Compound concentration 1000.0 nM
[32] = biological target: Receptor tyrosine-protein kinase erbB-2 (Homo sapiens) (UniProt P04626); conditions: Compound concentration 1000.0 nM
[33] = biological target: Serine/threonine-protein kinase Nek5 (Homo sapiens) (UniProt Q6P3R8); conditions: Compound concentration 1000.0 nM
[34] = biological target: 5-hydroxytryptamine receptor 2A (Homo sapiens) (UniProt P28223); test: 5-HT2A (h) Eurofins-Cerep binding assay; design: ligand concentration 0.5 nM; conditions: filed as antagonist, Compound concentration 10.0 uM
[35] = biological target: Kappa-type opioid receptor (Homo sapiens) (UniProt P41145); conditions: Compound concentration 10.0 uM
[36] = biological target: Serine/threonine-protein kinase SBK1 (Homo sapiens) (UniProt Q52WX2); conditions: Compound concentration 1000.0 nM
[37] = biological target: Tyrosine-protein kinase TXK (Homo sapiens) (UniProt P42681); conditions: Compound concentration 1000.0 nM
[38] = biological target: Ribosomal protein S6 kinase alpha-6 (Homo sapiens) (UniProt Q9UK32); conditions: Compound concentration 1000.0 nM

Sequence of Phosphatidylinositol 4,5-bisphosphate 3-kinase catalytic subunit alpha isoform (Homo sapiens), P42336 [H1047L] (P42336 whole entry H1047L, canonical isoform): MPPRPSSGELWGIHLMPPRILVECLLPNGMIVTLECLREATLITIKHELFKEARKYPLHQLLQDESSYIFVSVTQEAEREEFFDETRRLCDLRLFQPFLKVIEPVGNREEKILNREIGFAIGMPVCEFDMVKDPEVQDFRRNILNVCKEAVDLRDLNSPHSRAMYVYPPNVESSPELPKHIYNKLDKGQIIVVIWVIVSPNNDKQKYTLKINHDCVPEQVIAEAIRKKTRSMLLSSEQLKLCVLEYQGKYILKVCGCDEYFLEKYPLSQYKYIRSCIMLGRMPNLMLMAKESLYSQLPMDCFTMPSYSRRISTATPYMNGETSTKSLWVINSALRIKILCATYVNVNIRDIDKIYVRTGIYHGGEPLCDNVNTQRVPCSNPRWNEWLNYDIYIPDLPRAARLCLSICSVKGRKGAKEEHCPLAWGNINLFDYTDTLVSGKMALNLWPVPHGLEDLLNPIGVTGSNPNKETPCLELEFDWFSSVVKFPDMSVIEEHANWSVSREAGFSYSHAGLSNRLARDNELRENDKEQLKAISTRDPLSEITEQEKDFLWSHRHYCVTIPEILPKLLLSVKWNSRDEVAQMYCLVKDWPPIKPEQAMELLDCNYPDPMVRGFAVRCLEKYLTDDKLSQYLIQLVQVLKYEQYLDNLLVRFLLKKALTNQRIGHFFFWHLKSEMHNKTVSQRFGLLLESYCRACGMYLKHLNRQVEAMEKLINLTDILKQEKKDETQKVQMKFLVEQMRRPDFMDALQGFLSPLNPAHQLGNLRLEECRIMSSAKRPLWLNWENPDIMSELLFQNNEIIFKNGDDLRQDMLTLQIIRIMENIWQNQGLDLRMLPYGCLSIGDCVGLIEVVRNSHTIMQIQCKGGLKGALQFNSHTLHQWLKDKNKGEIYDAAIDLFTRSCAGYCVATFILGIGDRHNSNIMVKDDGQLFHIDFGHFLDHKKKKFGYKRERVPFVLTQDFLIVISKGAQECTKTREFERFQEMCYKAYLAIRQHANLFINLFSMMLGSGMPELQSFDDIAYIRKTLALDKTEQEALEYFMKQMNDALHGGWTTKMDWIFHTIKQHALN
Sequence of Dual specificity mitogen-activated protein kinase kinase 7 (Homo sapiens) (O14733 whole entry): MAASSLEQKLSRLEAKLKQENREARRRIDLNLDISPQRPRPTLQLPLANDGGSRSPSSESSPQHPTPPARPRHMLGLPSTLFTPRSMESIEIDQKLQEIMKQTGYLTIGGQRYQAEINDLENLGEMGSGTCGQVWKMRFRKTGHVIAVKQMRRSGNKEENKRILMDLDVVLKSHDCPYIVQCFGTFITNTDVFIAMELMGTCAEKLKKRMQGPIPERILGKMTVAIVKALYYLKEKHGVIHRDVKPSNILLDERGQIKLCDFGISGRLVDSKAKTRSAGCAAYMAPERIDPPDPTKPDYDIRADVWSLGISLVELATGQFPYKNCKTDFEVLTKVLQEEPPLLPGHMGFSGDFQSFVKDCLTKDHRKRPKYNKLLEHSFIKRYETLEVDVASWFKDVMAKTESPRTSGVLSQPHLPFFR
Sequence of D(2) dopamine receptor (Homo sapiens) (P14416 whole entry): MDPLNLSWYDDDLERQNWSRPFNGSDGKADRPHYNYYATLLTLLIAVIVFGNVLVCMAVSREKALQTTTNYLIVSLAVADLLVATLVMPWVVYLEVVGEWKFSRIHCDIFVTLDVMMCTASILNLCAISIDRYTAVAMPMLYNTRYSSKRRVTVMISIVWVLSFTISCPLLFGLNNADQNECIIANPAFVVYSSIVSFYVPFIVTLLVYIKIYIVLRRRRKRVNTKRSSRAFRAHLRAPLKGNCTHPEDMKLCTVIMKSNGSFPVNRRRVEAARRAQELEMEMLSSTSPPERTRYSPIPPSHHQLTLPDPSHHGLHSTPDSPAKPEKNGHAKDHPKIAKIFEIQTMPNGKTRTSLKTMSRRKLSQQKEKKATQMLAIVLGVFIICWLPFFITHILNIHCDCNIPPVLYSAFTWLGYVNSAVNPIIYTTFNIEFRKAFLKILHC
Sequence of Phosphatidylinositol 5-phosphate 4-kinase type-2 beta (Homo sapiens) (P78356 whole entry): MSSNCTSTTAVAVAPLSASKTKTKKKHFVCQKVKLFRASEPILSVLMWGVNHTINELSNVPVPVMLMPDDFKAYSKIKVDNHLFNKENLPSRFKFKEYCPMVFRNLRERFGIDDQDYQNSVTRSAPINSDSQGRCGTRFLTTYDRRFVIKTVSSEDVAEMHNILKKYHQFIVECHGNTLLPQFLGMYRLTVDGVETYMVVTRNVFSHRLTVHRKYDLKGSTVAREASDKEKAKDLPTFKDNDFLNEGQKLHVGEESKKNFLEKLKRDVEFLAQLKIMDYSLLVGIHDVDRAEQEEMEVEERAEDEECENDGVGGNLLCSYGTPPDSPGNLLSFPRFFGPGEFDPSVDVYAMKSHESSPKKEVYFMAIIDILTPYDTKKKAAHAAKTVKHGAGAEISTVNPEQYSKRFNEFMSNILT
Sequence of Tyrosine-protein kinase receptor UFO (Homo sapiens) (P30530 whole entry): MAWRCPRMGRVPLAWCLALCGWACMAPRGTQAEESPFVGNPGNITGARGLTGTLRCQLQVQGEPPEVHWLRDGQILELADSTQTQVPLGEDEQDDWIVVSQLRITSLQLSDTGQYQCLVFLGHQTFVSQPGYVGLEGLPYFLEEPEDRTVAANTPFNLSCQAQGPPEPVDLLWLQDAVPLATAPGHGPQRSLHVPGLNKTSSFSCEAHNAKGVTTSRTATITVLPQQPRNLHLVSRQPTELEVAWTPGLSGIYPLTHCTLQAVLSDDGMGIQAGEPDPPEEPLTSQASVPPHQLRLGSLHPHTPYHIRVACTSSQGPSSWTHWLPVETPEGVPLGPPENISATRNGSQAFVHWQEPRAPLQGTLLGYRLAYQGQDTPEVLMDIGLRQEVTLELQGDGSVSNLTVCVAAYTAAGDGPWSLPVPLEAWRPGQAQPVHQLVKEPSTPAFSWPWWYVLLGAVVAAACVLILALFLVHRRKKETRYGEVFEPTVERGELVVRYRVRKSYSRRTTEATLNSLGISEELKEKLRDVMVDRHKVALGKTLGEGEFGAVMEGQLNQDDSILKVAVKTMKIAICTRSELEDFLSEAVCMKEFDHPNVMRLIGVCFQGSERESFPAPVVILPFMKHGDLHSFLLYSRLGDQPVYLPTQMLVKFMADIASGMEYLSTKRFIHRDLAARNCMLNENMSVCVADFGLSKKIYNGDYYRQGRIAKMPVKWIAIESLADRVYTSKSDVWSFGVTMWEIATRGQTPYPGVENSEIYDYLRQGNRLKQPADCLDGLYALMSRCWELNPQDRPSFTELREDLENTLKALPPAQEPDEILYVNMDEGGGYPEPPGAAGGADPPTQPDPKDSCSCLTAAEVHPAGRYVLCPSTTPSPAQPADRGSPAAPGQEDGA
Sequence of Serine/threonine-protein kinase TAO3 (Homo sapiens) (Q9H2K8 whole entry): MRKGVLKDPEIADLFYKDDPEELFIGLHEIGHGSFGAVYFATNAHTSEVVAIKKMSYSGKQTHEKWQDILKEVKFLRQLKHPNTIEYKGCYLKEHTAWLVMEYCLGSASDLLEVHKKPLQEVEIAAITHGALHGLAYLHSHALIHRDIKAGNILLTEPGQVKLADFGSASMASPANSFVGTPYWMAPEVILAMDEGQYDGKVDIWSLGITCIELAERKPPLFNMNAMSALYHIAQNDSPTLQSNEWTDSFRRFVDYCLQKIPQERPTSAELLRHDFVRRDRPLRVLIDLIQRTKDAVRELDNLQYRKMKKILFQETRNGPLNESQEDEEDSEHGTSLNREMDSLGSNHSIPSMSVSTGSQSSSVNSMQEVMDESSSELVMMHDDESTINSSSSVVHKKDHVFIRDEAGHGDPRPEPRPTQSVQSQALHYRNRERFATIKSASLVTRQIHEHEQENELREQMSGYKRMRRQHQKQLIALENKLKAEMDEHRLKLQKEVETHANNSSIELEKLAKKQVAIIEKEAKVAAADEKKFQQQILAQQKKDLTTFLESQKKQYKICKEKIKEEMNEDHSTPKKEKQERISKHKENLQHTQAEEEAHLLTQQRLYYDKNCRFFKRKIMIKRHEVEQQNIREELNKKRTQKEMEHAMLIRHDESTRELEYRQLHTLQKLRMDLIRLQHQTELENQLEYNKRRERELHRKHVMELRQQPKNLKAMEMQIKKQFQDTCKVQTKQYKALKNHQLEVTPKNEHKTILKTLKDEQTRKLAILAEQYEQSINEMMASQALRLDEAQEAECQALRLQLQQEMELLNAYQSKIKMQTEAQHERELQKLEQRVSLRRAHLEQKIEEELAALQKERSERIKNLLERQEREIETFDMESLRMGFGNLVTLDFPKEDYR
Sequence of D(1B) dopamine receptor (Homo sapiens) (P21918 whole entry): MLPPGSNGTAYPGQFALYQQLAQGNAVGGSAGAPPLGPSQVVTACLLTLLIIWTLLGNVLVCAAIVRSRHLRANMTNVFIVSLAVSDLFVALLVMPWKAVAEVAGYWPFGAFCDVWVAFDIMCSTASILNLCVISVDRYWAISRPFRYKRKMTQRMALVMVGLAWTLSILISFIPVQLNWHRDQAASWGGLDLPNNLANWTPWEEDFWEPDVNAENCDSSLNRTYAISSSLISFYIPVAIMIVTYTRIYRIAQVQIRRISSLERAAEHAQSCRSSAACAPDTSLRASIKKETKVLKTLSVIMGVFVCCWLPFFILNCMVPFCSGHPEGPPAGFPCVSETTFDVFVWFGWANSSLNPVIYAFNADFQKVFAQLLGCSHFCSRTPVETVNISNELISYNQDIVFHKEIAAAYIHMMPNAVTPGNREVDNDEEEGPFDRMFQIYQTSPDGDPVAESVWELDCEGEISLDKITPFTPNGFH
Sequence of Mitogen-activated protein kinase 13 (Homo sapiens) (O15264 whole entry): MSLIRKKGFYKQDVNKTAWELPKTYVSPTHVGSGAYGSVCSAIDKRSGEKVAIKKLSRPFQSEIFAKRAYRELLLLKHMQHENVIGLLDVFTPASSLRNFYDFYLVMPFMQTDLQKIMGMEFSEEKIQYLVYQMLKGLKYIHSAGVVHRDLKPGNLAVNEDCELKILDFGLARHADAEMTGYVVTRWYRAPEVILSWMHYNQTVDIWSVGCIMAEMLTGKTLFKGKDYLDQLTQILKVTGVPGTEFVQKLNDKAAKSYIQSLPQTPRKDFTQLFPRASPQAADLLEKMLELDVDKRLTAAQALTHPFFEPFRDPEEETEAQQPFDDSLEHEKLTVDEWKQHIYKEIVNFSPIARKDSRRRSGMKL

SMILES | residual activity [1] [%] | residual activity [2] [%] | residual activity [3] [%] | residual activity [4] [%] | residual activity [5] [%] | residual activity [6] [%] | residual activity [7] [%] | residual activity [8] [%] | residual activity [9] [%] | residual activity [10] [%] | residual activity [11] [%] | inhibition [12] [%] | residual activity [13] [%] | EC50 [14] | residual activity [15] [%] | % Inhibition of Control Specific Binding (Mean n=2) [16] [%] | residual activity [17] [%] | residual activity [18] [%] | % Inhibition of Control Specific Binding (Mean n=2) [19] [%] | residual activity [20] [%] | further results
COc1ccc2c(c1)O[C@@H](c1ccc(OC)c(OC)c1)C[C@H]2NC(=O)C1(c2ccc3c(c2)OC(F)(F)O3)CC1 [A-1596586] | 81 | 94 | 77 | 83 | 77 | 97 | 88 | 65 | 70 | 76 | 95 | 20.7 | 98 | 0.035 µM (active) | 100 | -3.3 | 91 | 90 | -51.6 | 100 | residual activity [21]: 82%; residual activity [22]: 91%; residual activity [23]: 81%; residual activity [24]: 93%; residual activity [25]: 77%; residual activity [26]: 86%; % Inhibition of Control Specific Binding (Mean n=2) [27]: -3%; inhibition [28]: 2.62%; residual activity [29]: 100%; residual activity [30]: 96%; residual activity [31]: 100%; residual activity [32]: 75%; residual activity [33]: 71%; % Inhibition of Control Specific Binding (Mean n=2) [34]: -7.4%; inhibition [35]: 34.1%; residual activity [36]: 94%; residual activity [37]: 97%; residual activity [38]: 84%
COc1ccc2c(c1)O[C@H](c1ccc(OC)c(OC)c1)C[C@@H]2NC(=O)C1(c2ccc3c(c2)OC(F)(F)O3)CC1 [A-1596584] | 100 | 97 | 100 | 98 | 100 | 100 | 100 | 72 | 79 | 87 | 100 | 20 | 100 | 3.9 µM (not active) | 80 | -12.8 | 96 | 100 | -38.6 | 100 | residual activity [21]: 87%; residual activity [22]: 100%; residual activity [23]: 74%; residual activity [24]: 94%; residual activity [25]: 100%; residual activity [26]: 100%; % Inhibition of Control Specific Binding (Mean n=2) [27]: 0.8%; inhibition [28]: -7.27%; residual activity [29]: 100%; residual activity [30]: 100%; residual activity [31]: 100%; residual activity [32]: 100%; residual activity [33]: 100%; % Inhibition of Control Specific Binding (Mean n=2) [34]: -3.7%; inhibition [35]: 27.4%; residual activity [36]: 90%; residual activity [37]: 95%; residual activity [38]: 87%
